Laboratory results: patent US20250353864A1, “INDAZOLE CONTAINING MACROCYCLES AND THEIR USE” (BLOSSOMHILL THERAPEUTICS, INC., priority 2022, published 2025)

Legend:
Format in all cases: biochemical
[1] = target: EGFR Δ746-750 mutant (Homo sapiens (Human), UniProt P00533, DEL746-750); experiment: HotSpot radiometric kinase assay, EGFR Δ746-750 mutant; conditions: 10 μM ATP
In short: (§1)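 Radiometric filter-binding read-out: incorporated 33P was retained on P81 ion-exchange paper after washing away unbound phosphate. Reactions ran 120 min at room temperature with 10 μM final ATP, following ~20 min compound preincubation in Hepes pH 7.5 buffer containing 1% DMSO. IC50 from fitted curves.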

[2] = target: CLK4 (Homo sapiens (Human), UniProt Q9HAZ1); experiment: Inhibition of CLK4 kinase activity evaluated at Nanosyn (ADP-Glo); conditions: ADP-Glo luminescence
In short: (§2)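 Enzyme + substrate in HEPES pH 7.5/MgCl2/DTT buffer; compound dispensed acoustically, 1% DMSO. ATP start, assay-specific incubation time. ADP-Glo reagent 40 min, detection reagent 10 min, luminescence. %inh vs DMSO (0%) and no-enzyme (100%) controls.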

[3] = target: CLK3 (Homo sapiens (Human), UniProt P49761); experiment: Inhibition of CLK3 kinase activity evaluated at Nanosyn (ADP-Glo); conditions: ADP-Glo luminescence
In short: as §2

[4] = target: EGFR L858R/T790M mutant (Homo sapiens (Human), UniProt P00533, L858R/T790M); experiment: HotSpot radiometric kinase assay, EGFR L858R/T790M mutant; conditions: 10 μM ATP
In short: as §1

[5] = target: EGFR WT (Homo sapiens (Human), UniProt P00533); experiment: HotSpot radiometric kinase assay (Reaction Biology), EGFR WT; conditions: 10 μM ATP
In short: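 Kinase, substrate and cofactors are mixed in 20 mM Hepes pH 7.5 with 10 mM MgCl2, 1 mM EGTA, 2 mM DTT and 1% DMSO. Compound is added, and about 20 min later ATP/33P-ATP (10 μM final) starts a 120-min room-temperature reaction, which is then spotted onto P81 paper.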

[6] = target: EGFR L858R/T790M/C797S mutant (Homo sapiens (Human), UniProt P00533, C797S/L858R/T790M); experiment: HotSpot radiometric kinase assay, EGFR L858R/T790M/C797S mutant; conditions: 10 μM ATP
In short: as §1

[7] = target: CLK1 (Homo sapiens (Human), UniProt P49759); experiment: Inhibition of CLK1 kinase activity evaluated at Nanosyn (ADP-Glo); conditions: ADP-Glo luminescence
In short: as §2

[8] = target: EGFR (D770_N771insNPG) (Homo sapiens (Human), UniProt P00533, INS770NPG); experiment: HotSpot radiometric kinase assay, EGFR (D770_N771insNPG); conditions: 10 μM ATP, read-out: EGFR (Δ770_N771insNPG) IC50
In short: as §1

[9] = target: EGFR Δ746-750/C797S mutant (Homo sapiens (Human), UniProt P00533, C797S/DEL746-750); experiment: HotSpot radiometric kinase assay, EGFR Δ746-750/C797S mutant; conditions: 10 μM ATP
In short: as §1

[10] = target: CLK2 (Homo sapiens (Human), UniProt P49760); experiment: Inhibition of CLK2 kinase activity evaluated at Nanosyn (ADP-Glo); conditions: ADP-Glo luminescence
In short: as §2

[11] = target: EGFR L858R mutant (Homo sapiens (Human), UniProt P00533, L858R); experiment: HotSpot radiometric kinase assay, EGFR L858R mutant; conditions: 10 μM ATP
In short: as §1

Chain of CLK1 (P49759 whole entry): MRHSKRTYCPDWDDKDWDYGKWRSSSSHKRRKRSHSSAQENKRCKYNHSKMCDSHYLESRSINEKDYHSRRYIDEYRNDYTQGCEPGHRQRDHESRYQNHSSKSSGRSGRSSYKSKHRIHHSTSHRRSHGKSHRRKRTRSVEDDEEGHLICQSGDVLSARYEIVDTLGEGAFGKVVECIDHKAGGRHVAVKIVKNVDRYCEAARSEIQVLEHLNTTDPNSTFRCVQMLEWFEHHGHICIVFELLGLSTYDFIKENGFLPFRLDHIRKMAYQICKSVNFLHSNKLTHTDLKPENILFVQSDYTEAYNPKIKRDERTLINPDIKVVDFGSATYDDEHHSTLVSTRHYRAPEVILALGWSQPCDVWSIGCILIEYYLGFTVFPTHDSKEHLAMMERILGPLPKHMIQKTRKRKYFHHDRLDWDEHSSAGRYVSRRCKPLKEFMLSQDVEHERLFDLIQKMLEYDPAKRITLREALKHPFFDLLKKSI
Chain of CLK2 (P49760 whole entry): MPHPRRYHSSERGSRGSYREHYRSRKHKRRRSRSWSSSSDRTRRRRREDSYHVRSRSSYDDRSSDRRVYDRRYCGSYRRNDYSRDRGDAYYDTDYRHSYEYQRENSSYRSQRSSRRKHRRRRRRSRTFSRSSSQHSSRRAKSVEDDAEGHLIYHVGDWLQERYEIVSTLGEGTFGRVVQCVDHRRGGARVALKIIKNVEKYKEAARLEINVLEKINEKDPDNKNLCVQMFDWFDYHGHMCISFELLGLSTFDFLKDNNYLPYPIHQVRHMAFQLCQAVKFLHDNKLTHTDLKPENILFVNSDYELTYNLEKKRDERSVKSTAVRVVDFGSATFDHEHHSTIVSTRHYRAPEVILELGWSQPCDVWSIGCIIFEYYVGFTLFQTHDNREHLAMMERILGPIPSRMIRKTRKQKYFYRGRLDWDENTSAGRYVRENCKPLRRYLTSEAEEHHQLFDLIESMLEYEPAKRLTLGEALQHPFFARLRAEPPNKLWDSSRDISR
Chain of CLK3 (P49761 whole entry): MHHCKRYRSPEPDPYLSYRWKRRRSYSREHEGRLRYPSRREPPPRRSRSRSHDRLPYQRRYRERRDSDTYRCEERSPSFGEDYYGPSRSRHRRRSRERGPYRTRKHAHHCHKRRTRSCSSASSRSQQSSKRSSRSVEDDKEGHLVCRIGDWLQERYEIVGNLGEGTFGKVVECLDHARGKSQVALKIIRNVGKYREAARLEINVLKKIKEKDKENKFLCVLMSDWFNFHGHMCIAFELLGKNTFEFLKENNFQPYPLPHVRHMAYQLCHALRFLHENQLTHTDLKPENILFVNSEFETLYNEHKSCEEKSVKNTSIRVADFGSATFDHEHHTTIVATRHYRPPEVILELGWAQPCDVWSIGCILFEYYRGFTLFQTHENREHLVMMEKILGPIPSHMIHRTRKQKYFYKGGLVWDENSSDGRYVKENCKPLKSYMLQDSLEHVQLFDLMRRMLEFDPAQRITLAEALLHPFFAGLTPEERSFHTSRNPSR
Chain of EGFR (D770_N771insNPG) (P00533 other isoform, or with tags, fused parts or gaps del 1-668/ins NPG behind 770 limits assumed): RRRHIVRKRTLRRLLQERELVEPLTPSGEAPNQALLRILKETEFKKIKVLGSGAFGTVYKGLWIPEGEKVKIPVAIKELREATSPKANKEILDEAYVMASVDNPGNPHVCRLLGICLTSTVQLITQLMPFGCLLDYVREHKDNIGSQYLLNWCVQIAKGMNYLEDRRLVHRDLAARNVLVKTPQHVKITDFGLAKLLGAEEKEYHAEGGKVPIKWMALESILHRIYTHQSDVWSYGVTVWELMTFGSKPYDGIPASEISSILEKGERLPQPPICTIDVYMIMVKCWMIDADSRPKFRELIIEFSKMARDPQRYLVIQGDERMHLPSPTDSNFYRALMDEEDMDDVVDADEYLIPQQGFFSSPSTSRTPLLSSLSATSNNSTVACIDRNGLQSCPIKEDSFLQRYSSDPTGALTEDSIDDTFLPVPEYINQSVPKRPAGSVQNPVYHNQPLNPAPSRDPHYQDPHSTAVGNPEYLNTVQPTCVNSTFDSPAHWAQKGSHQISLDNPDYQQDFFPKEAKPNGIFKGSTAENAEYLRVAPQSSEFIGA
Chain of EGFR L858R/T790M mutant (P00533 25-1210 T790M/L858R): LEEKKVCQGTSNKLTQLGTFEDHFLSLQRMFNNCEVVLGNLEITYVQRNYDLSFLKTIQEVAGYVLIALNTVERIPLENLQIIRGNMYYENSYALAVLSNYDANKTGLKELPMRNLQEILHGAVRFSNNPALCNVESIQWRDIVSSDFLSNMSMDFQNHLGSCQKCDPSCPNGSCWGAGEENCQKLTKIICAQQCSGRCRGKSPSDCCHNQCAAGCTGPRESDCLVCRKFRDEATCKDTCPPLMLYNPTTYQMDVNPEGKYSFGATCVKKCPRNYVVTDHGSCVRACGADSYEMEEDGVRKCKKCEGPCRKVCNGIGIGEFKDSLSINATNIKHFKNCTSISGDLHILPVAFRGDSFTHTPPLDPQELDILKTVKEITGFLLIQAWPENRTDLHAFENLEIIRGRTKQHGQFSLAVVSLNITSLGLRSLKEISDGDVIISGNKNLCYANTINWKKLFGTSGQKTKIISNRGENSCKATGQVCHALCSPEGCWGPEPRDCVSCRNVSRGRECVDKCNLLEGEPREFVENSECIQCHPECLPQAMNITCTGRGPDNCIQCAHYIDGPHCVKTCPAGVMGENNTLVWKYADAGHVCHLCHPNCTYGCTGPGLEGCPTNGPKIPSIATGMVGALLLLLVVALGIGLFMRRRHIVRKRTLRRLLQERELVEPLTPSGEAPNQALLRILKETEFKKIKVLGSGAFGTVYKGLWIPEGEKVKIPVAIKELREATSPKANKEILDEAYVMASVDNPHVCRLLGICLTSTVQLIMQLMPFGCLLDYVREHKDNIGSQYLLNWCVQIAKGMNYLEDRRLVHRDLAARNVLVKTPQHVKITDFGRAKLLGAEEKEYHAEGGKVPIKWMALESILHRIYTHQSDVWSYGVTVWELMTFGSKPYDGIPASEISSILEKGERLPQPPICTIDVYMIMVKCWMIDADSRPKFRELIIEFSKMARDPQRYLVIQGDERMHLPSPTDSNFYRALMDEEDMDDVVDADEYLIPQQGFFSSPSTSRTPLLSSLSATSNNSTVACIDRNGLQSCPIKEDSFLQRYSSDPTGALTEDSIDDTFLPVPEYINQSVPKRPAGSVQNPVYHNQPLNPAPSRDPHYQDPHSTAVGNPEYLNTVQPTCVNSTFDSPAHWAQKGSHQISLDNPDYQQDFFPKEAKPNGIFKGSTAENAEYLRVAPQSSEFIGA
Chain of EGFR WT (P00533 25-1210): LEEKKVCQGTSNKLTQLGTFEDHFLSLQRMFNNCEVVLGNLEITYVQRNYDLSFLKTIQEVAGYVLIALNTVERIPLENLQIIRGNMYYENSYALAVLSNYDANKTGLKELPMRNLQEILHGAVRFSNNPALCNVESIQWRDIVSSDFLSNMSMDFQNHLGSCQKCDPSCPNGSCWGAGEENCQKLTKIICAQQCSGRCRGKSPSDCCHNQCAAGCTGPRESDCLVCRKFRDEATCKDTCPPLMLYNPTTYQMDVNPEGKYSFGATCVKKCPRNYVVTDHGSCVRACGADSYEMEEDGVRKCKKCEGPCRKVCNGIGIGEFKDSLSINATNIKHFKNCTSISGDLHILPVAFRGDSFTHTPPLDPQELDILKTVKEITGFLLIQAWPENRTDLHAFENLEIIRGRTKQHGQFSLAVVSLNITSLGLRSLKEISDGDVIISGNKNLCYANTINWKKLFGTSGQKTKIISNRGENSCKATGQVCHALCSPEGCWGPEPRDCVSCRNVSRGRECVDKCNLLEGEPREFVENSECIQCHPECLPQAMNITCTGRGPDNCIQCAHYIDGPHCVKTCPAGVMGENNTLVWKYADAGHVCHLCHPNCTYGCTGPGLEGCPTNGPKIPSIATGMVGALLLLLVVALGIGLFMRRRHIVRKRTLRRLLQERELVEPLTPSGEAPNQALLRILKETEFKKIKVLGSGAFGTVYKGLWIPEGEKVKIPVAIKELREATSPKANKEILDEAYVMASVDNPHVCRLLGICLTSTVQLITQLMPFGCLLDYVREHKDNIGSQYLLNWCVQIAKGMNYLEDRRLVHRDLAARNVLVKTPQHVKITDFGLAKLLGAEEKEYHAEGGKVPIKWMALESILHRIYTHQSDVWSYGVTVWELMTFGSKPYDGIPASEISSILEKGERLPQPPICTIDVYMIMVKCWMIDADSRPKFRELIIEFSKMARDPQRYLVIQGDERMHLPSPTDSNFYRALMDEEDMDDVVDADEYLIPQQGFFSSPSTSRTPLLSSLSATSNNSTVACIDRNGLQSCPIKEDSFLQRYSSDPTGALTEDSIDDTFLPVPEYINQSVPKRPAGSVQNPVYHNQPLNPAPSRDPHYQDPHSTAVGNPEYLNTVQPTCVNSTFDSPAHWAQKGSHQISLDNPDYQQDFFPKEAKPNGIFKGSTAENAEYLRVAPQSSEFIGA
Chain of CLK4 (Q9HAZ1 whole entry): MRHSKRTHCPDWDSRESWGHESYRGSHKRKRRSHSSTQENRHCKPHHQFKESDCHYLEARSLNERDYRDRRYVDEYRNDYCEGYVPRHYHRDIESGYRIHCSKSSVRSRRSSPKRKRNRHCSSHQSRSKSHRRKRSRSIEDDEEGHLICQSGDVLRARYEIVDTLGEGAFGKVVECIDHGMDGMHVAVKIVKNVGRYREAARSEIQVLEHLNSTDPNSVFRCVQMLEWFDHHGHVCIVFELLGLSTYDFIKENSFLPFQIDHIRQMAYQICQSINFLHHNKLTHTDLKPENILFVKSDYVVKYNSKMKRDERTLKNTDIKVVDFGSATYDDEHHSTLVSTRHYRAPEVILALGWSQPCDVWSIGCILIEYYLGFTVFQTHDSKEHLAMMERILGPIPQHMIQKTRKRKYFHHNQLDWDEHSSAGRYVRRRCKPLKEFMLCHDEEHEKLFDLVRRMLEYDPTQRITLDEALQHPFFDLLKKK

IC50 [1] [nM]	IC50 [2] [nM]	IC50 [3] [nM]	IC50 [4] [nM]	IC50 [5] [nM]	IC50 [6] [nM]	IC50 [7] [nM]	IC50 [8] [nM]	IC50 [9] [nM]	IC50 [10] [nM]	IC50 [11] [nM]	Structure (SMILES)
4.84	0.19	72.4	0.47	28.5	0.44	0.1	19	2.33	0.02	6.08	CCN1Cc2c(c(C)nn2C)/C=C/c2n[nH]c3ccc(cc23)-c2cnn(C)c2O[C@@H](C)C1 [Example 165, (10S,17E)-12-ethyl-8,10,14,16-tetramethyl-2,10,11,12,13,14-hexahydro-8H-3,5-ethenotripyrazolo[3,4-f:3′,4′-j:4″,3″-n][1,4]oxazacyclopentadecine]
23.8	0.55	108	3.42	123	8.89	0.38	47.1	13.6	0.23	35.7	Cc1nn(C)c2c1/C=C/c1n[nH]c3ccc(cc13)-c1cnn(C)c1O[C@@H]1CCN(C2)C1 [Example 167, (10R,18E)-8,15,17-trimethyl-2,8,11,12,14,15-hexahydro-10H-3,5-etheno-10,13-methanotripyrazolo[3,4-g:3′,4′-k:4″,3″- 0][1,5]oxazacyclohexadecine]
5.96	0.77	238	0.72	16.6	2.72	0.39	13.9	1.38	0.33	1.88	CCOc1nn(CCO)c2c1/C=C/c1n[nH]c3ccc(cc13)-c1cnn(CC)c1O[C@@H](C)CN(C)C2 [Example 168, 2-[(10S,17E)-16-ethoxy-8-ethyl-10,12-dimethyl-2,8,10,11,12,13-hexahydro-14H-3,5-ethenotripyrazolo[3,4-f:3′,4′-j:4″,3″-n][1,4]oxazacyclopentadecin-14-yl]ethan-1-ol]
3.24	1.13	346	0.48	19.3	1.26	0.47	36.1	1.6	0.49	2.01	CCn1ncc2c1O[C@@H](C)CN(C)Cc1c(c(OC(C)C)nn1CCO)/C=C/c1n[nH]c3ccc-2cc13 [Example 169, 2-{(10S,17E)-8-ethyl-10,12-dimethyl-16-[(propan-2-yl)oxy]-2,8,10,11,12,13-hexahydro-14H-3,5-ethenotripyrazolo[3,4-f:3′,4′-j:4″,3″- n][1,4]oxazacyclopentadecin-14-yl}ethan-1-ol]
116	0.43	1000	36.6	908	25.9	0.38	329	30.2	0.36	310	Cn1ncc2c1OCCN1CC[C@H](C1)Oc1ccccc1/C=C/c1n[nH]c3ccc-2cc13 [Example 170, (10R,16E)-3-methyl-3,5,6,9,10,19-hexahydro-8H-20,22-etheno-7,10-methanodipyrazolo[3,4-i:4′,3′-m][1,8,5]benzodioxazacyclooctadecine]
38.3	0.57	977	0.5	67.2	1.32	0.85	86	8.74	0.62	7.5	CCOc1nn([C@H](C)CO)c2c1/C=C/c1n[nH]c3ccc(cc13)-c1cnn(C)c1O[C@@H](C)CN(C)C2 [Example 171, (2R)-2-[(10S,17E)-16-ethoxy-8,10,12-trimethyl-2,8,10,11,12,13-hexahydro-14H-3,5-ethenotripyrazolo[3,4-f:3′,4′-j:4″,3″-n][1,4]oxazacyclopentadecin-14-yl]propan-1-ol]
2.1	0.59	64.7	0.48	1.84	1.34	0.32	6.61	0.69	0.08	0.6	CCOc1nn(CCO)c2c1/C=C/c1n[nH]c3cc(F)c(cc13)-c1cnn(C)c1O[C@@H](C)CN(C)C2 [Example 172, 2-[(10S,17E)-16-ethoxy-19-fluoro-8,10,12-trimethyl-2,8,10,11,12,13-hexahydro-14H-3,5-ethenotripyrazolo[3,4-f:3′,4′-j:4″,3″- n][1,4]oxazacyclopentadecin-14-yl]ethan-1-ol]
533	1.26	1000	45.5	> 1000	27.4	0.7	> 1000	127	0.89	513	C[C@H]1CN(C)Cc2onc(C3CC3)c2/C=C/c2n[nH]c3ccc(cc23)-c2cnn(C)c2O1 [Example 173, (10S,17E)-16-cyclopropyl-8,10,12-trimethyl-2,8,10,11,12,13-hexahydro-3,5-etheno[1,2]oxazolo[5,4-f]dipyrazolo[3,4-j:4′,3′-n][1,4]oxazacyclopentadecine]
133	0.51	128	10.9	752	4.88	0.16	996	27.2	0.21	127	CCc1noc2c1/C=C/c1n[nH]c3ccc(cc13)-c1cnn(C)c1O[C@@H](C)CN(C)C2 [Example 174, (10S,17E)-16-ethyl-8,10,12-trimethyl-2,8,10,11,12,13-hexahydro-3,5-etheno[1,2]oxazolo[5,4-f]dipyrazolo[3,4-j:4′,3′-n][1,4]oxazacyclopentadecine]
24.9	1.44	1000	6.94	152	13.1	1.54	83.4	35.2	11.8	55.5	Cc1nn(C)c2c1/C=C/c1n[nH]c3ccc(cc13)-c1cnn(C)c1O[C@H]1CCCN(C2)C1 [Example 176, (10S,19E)-8,16,18-trimethyl-2,8,10,11,12,13,15,16-octahydro-3,5-etheno-10,14-methanotripyrazolo[3,4-h:3′,4′-l:4″,3″- p][1,6]oxazacycloheptadecine]
0.56	1.08	59.1	0.6	0.67	1.78	0.47	1.56	0.75	0.23	0.38	CCOc1nn(CCO)c2c1/C=C/c1n[nH]c3ccc(cc13)-c1cnn(C)c1O[C@@H](C)CN(CC)C2 [Example 177, 2-[(10S,17E)-16-ethoxy-12-ethyl-8,10-dimethyl-2,8,10,11,12,13-hexahydro-14H-3,5-ethenotripyrazolo[3,4-f:3′,4′-j:4″,3″-n][1,4]oxazacyclopentadecin-14-yl]ethan-1-ol]
> 1000	1.66	1000	1010	> 1000	507	2.75	> 1000	> 1000	9.57	> 1000	CC(C)c1noc2c1/C=C/c1n[nH]c3ccc(cc13)-c1cnn(C)c1O[C@@H](C)CN(C)C2 [Example 179, (10S,17E)-8,10,12-trimethyl-16-(propan-2-yl)-2,8,10,11,12,13-hexahydro-3,5-etheno[1,2]oxazolo[5,4-f]dipyrazolo[3,4-j:4′,3′-n][1,4]oxazacyclopentadecine]
53.8	1.83	155	0.65	195	1.05	0.82	534	17.7	0.24	61.5	CCOc1noc2c1/C=C/c1n[nH]c3ccc(cc13)-c1cnn(C)c1O[C@@H](C)CN(C)C2 [Example 183, (10S,17E)-16-ethoxy-8,10,12-trimethyl-2,8,10,11,12,13-hexahydro-3,5-etheno[1,2]oxazolo[5,4-f]dipyrazolo[3,4-j:4′,3′-n][1,4]oxazacyclopentadecine]
